Experimental data taken from paper PMC8027391, “Fangchinoline suppresses conjunctival melanoma by directly binding FUBP2 and inhibiting the homologous recombination pathway” (Cell Death & Disease, 2021).
Where a name gives a salt, the structure may show the parent alone. Read-outs that look alike come from different tables or passages of the source.

How the values were obtained:
CM-AS16 = assay: cells; design: CCK-8 anti-proliferation assay in conjunctival melanoma cell lines
Procedure: (§1) The anti-proliferative activity of our in-house drugs against CM-AS16 cells was assessed using the Cell Counting Kit-8 (CCK-8) assay at a final concentration of 10 μM (Fig. 1A). […] These analogues were Chinese herbal monomers harbouring the same bisbenzylisoquinoline core. […] Fangchinoline harbours an exposed hydroxy group, which is suitable for synthesizing functionalized probes and subsequent target identification. […] Next, we assessed the anti-proliferative activity of fangchinoline against three other CM cell lines obtained from patients with a typical NRAS (CRMM2) or BRAF mutation (CRMM1 and CM2005.1)[26],[27]. […] To determine whether fangchinoline could suppress CM properties in vivo, an immunodeficient NCG mice xenograft model was created by subcutaneous inoculation of CM-AS16 cells. NCG mice comes from knocking out the Prkdc and IL2rg genes in NOD/ShiltJ mice through Crispr Cas9 technology. […] The average tumour volume of the control group was 204 mm^3, which was higher than that of the treated groups (50 mg/kg/day fangchinoline, tumour volume: […] CRMM1, CRMM2 and CM2005.1 were generously provided by Professor Martine J. Jager (Leiden University Medical Center, Leiden, The Netherlands)[47] and CM-AS16 was provided by Professor Renbin Jia (Shanghai Ninth People’s Hospital, Shanghai, China). A375 and HEK293T were obtained from American Type Culture Collection. CM-AS16 and CM2005.1 were maintained in 1640H medium, CRMM1 and CRMM2 were maintained in F12K medium, A375 and HEK293T were maintained in DMEM medium, and MRC5 was maintained in MEM medium. All mediums were supplemented with 10% FBS. Cells were cultured at 37 °C in an incubator, in a humidified atmosphere with 5% CO2, periodically checked for mycoplasma-free and validated by short tandem repeats (STR) DNA analysis at BGI Tech Solutions (Beijing Liuhe) Co., Limited.

CM2005.1 = assay: cells; design: CCK-8 anti-proliferation assay in conjunctival melanoma cell lines
Procedure: as §1

CRMM1 = assay: cells; design: CCK-8 anti-proliferation assay in conjunctival melanoma cell lines
Procedure: as §1

CRMM2 = assay: cells; design: CCK-8 anti-proliferation assay in conjunctival melanoma cell lines
Procedure: as §1

in vitro = assay: in vitro; design: CCK-8 growth inhibition of MRC5 normal fibroblasts (counter-screen); details: human, mrc5 cells
Procedure: as §1

[1] = target: T1, far upstream element binding protein 2 (FUBP2) (Homo sapiens, UniProt Q92945); assay: microscale thermophoresis (MST, Monolith NT.[…]) with EGFP-labelled FUBP2 from transfected HEK293T cells
T1 construct: gene KHSRP; FUBP2 labelled with enhanced green fluorescent protein, obtained from HEK293T cells transfected with plasmids
T1 sequence (Q92945 2-711): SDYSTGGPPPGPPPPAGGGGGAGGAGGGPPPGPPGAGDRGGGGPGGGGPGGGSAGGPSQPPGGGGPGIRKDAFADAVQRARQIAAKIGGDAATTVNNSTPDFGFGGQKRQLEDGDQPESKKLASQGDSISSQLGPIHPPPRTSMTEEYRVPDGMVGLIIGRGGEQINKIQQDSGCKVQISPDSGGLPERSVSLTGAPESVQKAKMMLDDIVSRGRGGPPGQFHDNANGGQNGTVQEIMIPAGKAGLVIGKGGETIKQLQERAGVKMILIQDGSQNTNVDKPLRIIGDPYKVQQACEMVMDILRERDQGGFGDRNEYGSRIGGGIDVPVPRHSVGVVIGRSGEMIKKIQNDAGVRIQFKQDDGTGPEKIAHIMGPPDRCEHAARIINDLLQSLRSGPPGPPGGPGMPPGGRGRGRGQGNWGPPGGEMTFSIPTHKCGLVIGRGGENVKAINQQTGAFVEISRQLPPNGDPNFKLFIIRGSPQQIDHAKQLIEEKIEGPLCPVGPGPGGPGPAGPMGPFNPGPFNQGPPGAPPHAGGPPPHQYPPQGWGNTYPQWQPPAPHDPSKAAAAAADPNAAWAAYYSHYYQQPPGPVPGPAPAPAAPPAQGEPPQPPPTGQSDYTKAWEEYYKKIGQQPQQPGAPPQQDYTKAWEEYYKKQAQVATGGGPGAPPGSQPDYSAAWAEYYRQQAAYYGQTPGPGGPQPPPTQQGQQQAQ

[2] = CM-AS16; read-out: IC50 (μM) CM-AS16
[3] = CM2005.1; read-out: IC50 (μM) CM2005.1
[4] = Homo sapiens, CRMM-1; read-out: IC50 (μM) CRMM1
[5] = Homo sapiens, CRMM-2; read-out: IC50 (μM) CRMM2

SMILES | IC50 (CM-AS16; CM-AS16, read-out: IC50 (μM) CM-AS16) [µM] | IC50 (CM2005.1; CM2005.1, read-out: IC50 (μM) CM2005.1) [µM] | IC50 (CRMM1; Homo sapiens, CRMM-1, read-out: IC50 (μM) CRMM1) [µM] | IC50 (CRMM2; Homo sapiens, CRMM-2, read-out: IC50 (μM) CRMM2) [µM] | CC50 (in vitro) [µM] | IC50 (CM-AS16; [2]) [µM] | IC50 (CM2005.1; [3]) [µM] | IC50 (CRMM1; [4]) [µM] | IC50 (CRMM2; [5]) [µM] | CC50 (in vitro; read-out: IC50 (μM) MRC5) [µM] | Kd [1] [µM]
COc1cc2c3cc1Oc1c(OC)c(OC)cc4c1[C@@H](Cc1cccc(c1)Oc1ccc(c(O)c1)C[C@@H]3N(C)CC2)N(C)CC4 [Berbamine Hydrochloride] | 8.46 ± 0.22 | 20.2 ± 0.49 | 8.16 ± 0.13 | 4.14 ± 0.5 | 9.03 ± 0.22 |  |  |  |  |  | 
COc1ccc2cc1Oc1ccc(cc1)C[C@H]1c3c(cc4c(c3Oc3cc5c(cc3OC)CCN(C)[C@@H]5C2)OCO4)CCN1C [Cepharanthine] |  |  |  |  |  | 1.63 ± 0.24 | 7.44 ± 0.08 | 4.69 ± 0.17 | 0.792 ± 0.013 | 8.44 ± 0.54 | 
Cn1cnc2c(F)c(Nc3ccc(Br)cc3F)c(C(=O)NOCCO)cc21 [MEK162] |  |  |  |  |  | 0.0077 ± 0.0016 | 0.068 ± 0.008 | > 50 | 0.0136 ± 0.0006 | 6.32 ± 0.16 | 
COc1ccc2cc1Oc1ccc(cc1)C[C@H]1c3cc(c(OC)cc3CCN1C)Oc1c(OC)c(OC)cc3c1[C@H](C2)N(C)CC3 [Tetrandrine] |  |  |  |  |  | 3.2 ± 0.06 | 9.7 ± 0.07 | 4.77 ± 0.24 | 2.16 ± 0.02 | 5.75 ± 0.11 | 
COc1ccc2cc1Oc1ccc(cc1)C[C@H]1c3cc(c(OC)cc3CCN1C)Oc1c(O)c(OC)cc3c1[C@H](C2)N(C)CC3 [fangchinoline] |  |  |  |  |  | 5.67 ± 0.17 | 7.4 ± 0.45 | 2.68 ± 0.07 | 3.6 ± 0.05 | 4.35 ± 0.11 | 246
